Converted amounts (≈) assume the structure as drawn.
Columns and labels:
Assay type in all cases: cell-based
[1] = test system: A. viscosus; assay: Minimum Inhibitory Concentration test, oral bacteria; details: Actinomyces viscosus, trypticase soy broth, 18-24 hours of incubation
Description: (§1) Table 1 (below) describes the antibacterial efficacy (Minimum Inhibitory Concentration test) of Compound (3) [drawing 5] which is an exemplary compound of the present invention, against common oral bacteria, A. viscosus, S. mutans, S. oralis, S. sanguis, and L. casei. Minimum Inhibitory Concentration values are determined generally according to the following method: A series of two-fold dilutions of compound (3) in trypticase soy broth (Catalog No. 211768; Becton Dickinson, Franklin Lakes N.J.) was prepared in a 96 well plate and a constant amount of bacteria was then added to each well. After 18-24 hours of incubation, bacterial growth was measured with a Spectrophotometric Micro-plate Reader (Powerwave 5×, BioTEK, Winooski Vt.) and the MIC values were determined Results are provided in Table 1: […]

[2] = test system: L. casei; assay: as above; details: Lacticaseibacillus casei, trypticase soy broth, 18-24 hours of incubation
Description: as §1

[3] = test system: S. mutans; assay: as above; details: Streptococcus mutans, trypticase soy broth, 18-24 hours of incubation
Description: as §1

[4] = test system: S. oralis; assay: as above; details: Streptococcus oralis, trypticase soy broth, 18-24 hours of incubation
Description: as §1

[5] = test system: S. sanguis; assay: as above; details: trypticase soy broth, 18-24 hours of incubation
Description: as §1

[6] = test system: Corynebacterium minutissimum (C. minutissimum); assay: Minimum Inhibitory Concentration (MIC), skin bacteria; details: 18-24 hours of incubation
Description: (§2) Compound (3) was evaluated for its antibacterial efficacy against representative skin bacteria such as Staphylococcus aureus (S. aureus), Corynebacterium minutissimum (C. minutissimum), and Escherichia coli (E. coli). Minimum Inhibitory Concentration (MIC), and a Short Interval Kill Test (SIKT) were performed, and the results are described in Table 6 and Table 7 (below). MIC values against three common skin bacteria were determined for Compound (3) using the following method: A series of two-fold dilutions of Compound (3) was prepared in a 96 well plate and a constant amount of bacteria was added to each well. After 18-24 hours of incubation, bacterial growth was measured with a Spectrophotometric Micro-plate Reader and the MIC values were determined.

[7] = test system: Escherichia coli (E. coli); assay: as above; details: 18-24 hours of incubation
Description: as §2

[8] = test system: Staphylococcus aureus (S. aureus); assay: as above; details: 18-24 hours of incubation
Description: as §2

[9] = test system: Escherichia coli (E. coli); assay: Short Interval Kill Test (SIKT); details: 1 minute exposure
Description: (§3) Compound (3) was evaluated for its antibacterial efficacy against representative skin bacteria such as Staphylococcus aureus (S. aureus), Corynebacterium minutissimum (C. minutissimum), and Escherichia coli (E. coli). Minimum Inhibitory Concentration (MIC), and a Short Interval Kill Test (SIKT) were performed, and the results are described in Table 6 and Table 7 (below).
(§4) The SIKT test determines the kill effect of a test compound at a predetermined exposure time. The SIKT values presented below in Table 7, were obtained generally according to the following method: An aliquot of Compound (3) in a volume of 1.2 mL is transferred into a sterile test tube, to which 0.2 mL of a freshly prepared bacterial suspension (OD adjusted to 0.1 at 620 nm) is added and gently mixed. The reaction is neutralized at the 1 minute point by adding a neutralizing broth. The resulting mixture is then further diluted (serial ten-fold dilutions) with Letheen broth and an aliquot of each dilution is plated on MCA (Microbial Count Agar) plates for viable bacterial count.

[10] = test system: Staphylococcus aureus (S. aureus); assay: Short Interval Kill Test (SIKT); details: 1 minute exposure
Description: as §3, §4

[11] = test system: Prostaglandin E2 (PGE2); assay: PGE2 EIA anti-inflammatory assay in IL-1β or HKPG stimulated cells; details: PGE2 level; human embryo palatal mesenchyme cells; IL-1β (10 ng/ml) or heat-killed P. gingivalis (HKPG); overnight incubation
Description: Prostaglandin E2 (PGE2) is a key mediator of periodontal inflammation and its expression is a well-established as a biomarker associated with gingival inflammation. […] The data of Table 9 were obtained generally according to the following method: A 100 μL aliquot of DMEM media (Dulbecco's Modified Eagle Medium) (Invitrogen, Carlsbad, Calif.) containing either IL-1β (10 ng/ml) (Roche Applied Science, Indianapolis Ind.) or 10^8 heat-killed Prophynomonas gingivalis (HKPG) into each well of a sterile 96-well plate (“mirror plate”). An additional 98 μl aliquot of DMEM media containing either IL-1β or HKPG was added to the first well in each row. […]
Each well of a second plate containing growing cells (human embryo palatal mesenchyme cells, catalog no. CRL-1486; ATCC, Manassas, Va.) is washed twice with PBS, after which any remaining media is aspirated from the wells. […] An additional 30 μL aliquot of media is added to each well to adjust the final volume to 100 μL and the level of PGE2 determined using a detection kit generally according to the manufacturer's instructions (PEG2-EIA Kit, catalogue no. 901-001; Assay Designs Inc, Ann Arbor Mich.) and software (GraphPad Prism, GraphPad Software, Inc., San Diego Calif.).

SMILES	MIC [1]	MIC [2]	MIC [3]	MIC [4]	MIC [5]	MIC [6]	MIC [7]	MIC [8]	SIKT (% Reduction in viable count in 1 min.) [9]	SIKT (% Reduction in viable count in 1 min.) [10]	IC50 [11]
CCCc1cccc(-c2cccc(CCC)c2O)c1O [Compound (3), [1,1-Biphenyl]-2,2′-diol,3,3′ dipropyl]	3.9 µg/mL (≈ 14.4 µM)	7.8 µg/mL (≈ 28.8 µM)	7.8 µg/mL (≈ 28.8 µM)	7.8 µg/mL (≈ 28.8 µM)	3.9 µg/mL (≈ 14.4 µM)	62.5 µg/mL (≈ 231 µM)	62.5 µg/mL (≈ 231 µM)	31.2 µg/mL (≈ 116 µM)	99.55%	99.99%	0.25 ppm
C=CCc1ccc(O)c(-c2cc(CC=C)ccc2O)c1 [Magnolol, reference compound]											0.40 ppm

Reference: patent US9561193B2, “Oral and skin care compositions based on a 3,3-Dialkyl-1,1-biphenyl-2,2-diol or a 3,3-Dialkenyl-1,1-biphenyl-2,2-diol” (Colgate-Palmolive Company, priority 2011, dated 2017)
